From BigSolDB 2.1

Nc1ccc(S(=O)(=O)[O-])c(N)c1.[Na+]
solubility (mole fraction)
Conditions	in isopropanol	in methanol	in propylene glycol
273.15 K	2.2e-05	0.000977	0.000831
278.15 K	2.78e-05	0.00109	0.00121
283.15 K	3.51e-05	0.00145	0.00145
288.15 K	4.43e-05	0.00173	0.00196
293.15 K	5.57e-05	0.00228	0.00235
298.15 K	6.99e-05	0.00274	0.0028
303.15 K	8.76e-05	0.00318	0.00359
308.15 K	0.000109	0.00395	0.00431
313.15 K	0.000136	0.00466	0.00577
318.15 K	0.00017	0.00558	0.00749
323.15 K	0.000211	0.00661	0.00963
